Results on four compounds are retold here after patent US20250136579A1, “SALTS AND FREE BASES OF BIFUNCTIONAL COMPOUND AND POLYMORPH FORMS THEREOF” (NURIX THERAPEUTICS, INC., priority 2023, published 2025).

Where “and” joins values, the source holds several entries; their conditions need not be identical. Equal entries are not always repeated. Entries after “also recorded” stand apart in the source; their conditions may differ. A value given as a limit tells only on which side of the number the result lay.

The conditions of data set [1]: acid (counterion) used in salt screen; cited from earlier work.
Data set [2] is described as follows: overnight slurry in solvent, NMR analysis of recovered solids. The data set is classed as physicochemical.
A short description of data set [3]: water solubility, visual solubility estimation using pipet method. Particulars: thermodynamic from solid. The data set is classed as physicochemical.
The nature of data set [4]: estimated solubility by adding test solvent in aliquots to weighed solid, visual inspection. The data set is classed as physicochemical. As for the experimental part:
Solubilities of the compound of Formula (I), free base, in a few solvents were estimated. The experiments were carried out by adding the test solvent in aliquots to weighed portions of solid. Whether dissolution had occurred was judged by visual inspection after addition of each solvent aliquot. Solubility numbers were calculated by dividing the weight of the sample by total amount of solvent used to dissolve the sample. The actual solubilities may be greater than the numbers calculated because of the use of solvent aliquots that were too large or because of slow dissolution rates. […] The solubility number is expressed as “greater than or equal to” if dissolution occurred on addition of the first solvent aliquot.
Solubilities of Fumarate Salt Form A are shown in Tables 8 and 9, in selected solvents and aqueous binary mixtures.
Solubilities of the compound of Formula (I), Fumarate Salt Form A, are shown in Tables 15 and 16, in selected solvents and aqueous binary mixtures.

The nature of data set [5]: dynamic vapor sorption (DVS) analysis, TA Instruments Q5000, 5 to 95% RH. In kind it is physicochemical. As for the experimental part: For Fumarate Salt Form A, Dynamic vapor sorption (DVS) analysis was carried out using a TA Instruments Q5000 Dynamic Vapor Sorption analyser. The instrument was calibrated with standard weights and a sodium bromide standard for humidity. Approximately 10-25 mg of sample was loaded into a metal coated quartz pan for analysis. The sample was analysed at 25° C. with a maximum equilibration time of one hour in 10% relative humidity (RH) steps from 5 to 95% RH (adsorption cycle) and from 95 to 5% RH (desorption cycle). The movement from one step to the next occurred either after satisfying the equilibrium criterion of 0.01% weight change, or when the equilibrium criterion was not met after one hour. The percent weight change values were then calculated.

Data set [6] can be described thus: slurry of crystalline Fumarate Salt Form A in solvents, XRPD. The data set is classed as physicochemical. The source says:
Regarding the use of crystalline Fumarate Salt Form A in polymorph screens, crystalline Fumarate Salt Form A as a starting material was mixed with different solvents under various conditions in attempts to generate polymorphs.

The nature of data set [7]: initial physical stability evaluation at various relative humidity, room temperature, ~1 week (XRPD, Karl Fischer). The data set is classed as physicochemical. As for the experimental part:
In another one or more examples, Karl Fischer titrations (water content analysis) for fumarate salt(s) (e.g., Fumarate Salt Form A) were carried out using a Mettler-Toledo C20 Coulometric KF titrator. The instrument was calibrated using a Hydranal water standard containing 1% water. The titrant was a Hydranal methanol solution.
For initial physical stability evaluation, Fumarate Salt Form A was stored at various relative humidity conditions and room temperature for approximately 1 week (Table 14). Subsamples of Fumarate Salt Form A (approximately 90 mg) were weighed and placed inside relative humidity (RH) jars; after 1 week the samples were analyzed by XRPD and Karl Fisher analysis; the results are summarized in Table 14.

A word on the pKa: it is the pH at which an ionisable group is half protonated. With `O=C(O)[C@H](O)[C@@H](O)[C@H](O)[C@H](O)CO` [D-gluconic], in data set [1], the pKa is given as 3.76.

In general, solubility refers to the concentration that dissolves in the medium under given conditions. As to `CN1CCN([C@@H]2CCCN(c3cnc(C(N)=O)c(Nc4ccc(C5CCN(CC6CCN(c7ccc(C(=O)N[C@H]8CCC(=O)NC8=O)nc7)CC6)CC5)cc4)n3)C2)C1=O.O=C(O)/C=C\C(=O)O` [Maleate Salt Form A], the “1H NMR, post-EtOH slurry” value in data set [2] (slurry stirred overnight in EtOH) is “Consistent with a 1:1 salt”. In data set [2] (slurry stirred overnight in water), the “1H NMR, post-water slurry” value is on record as “Not consistent with 1:1 salt (0.4”. Besides, in data set [3], the solubility is under 300 µg/mL.

As to `CN1CCN([C@@H]2CCCN(c3cnc(C(N)=O)c(Nc4ccc(C5CCN(CC6CCN(c7ccc(C(=O)N[C@H]8CCC(=O)NC8=O)nc7)CC6)CC5)cc4)n3)C2)C1=O.O=C(O)/C=C/C(=O)O` [Fumarate Salt Form A], the “solubility” value was over 10000 µg/mL in data set [4] (acetonitrile/H2O (45/55), aw 0.9, solubility without temperature); 10000 µg/mL in data set [4] (aqueous with cosolvent or surfactant or cyclodextrin, thermodynamic from solid, 1,4-dioxane/H2O (60/40), aw 1.0, solubility without temperature, read-out: Solubility); 1000 µg/mL in data set [4] (aqueous with cosolvent or surfactant or cyclodextrin, thermodynamic from solid, 1,4-dioxane/H2O (95/5), aw 0.4, solubility without temperature, read-out: Solubility); over 1000 µg/mL in data set [4] (aqueous with cosolvent or surfactant or cyclodextrin, thermodynamic from solid, 2-propanol/H2O (80/20), aw 0.9, at 45° C., read-out: Solubility); under 1000 µg/mL in data set [4] (aqueous with cosolvent or surfactant or cyclodextrin, thermodynamic from solid, 2-propanol/H2O (80/20), aw 0.9, solubility without temperature, read-out: Solubility); 6000 µg/mL in data set [4] (aqueous with cosolvent or surfactant or cyclodextrin, thermodynamic from solid, acetone/H2O (70/30), aw 0.85, solubility without temperature, read-out: Solubility). Also, the solubility in data set [4] (aqueous with cosolvent or surfactant or cyclodextrin, thermodynamic from solid, acetonitrile/H2O (45/55), aw 0.9, solubility without temperature, read-out: Solubility) was over 10000 µg/mL; in data set [4] (aqueous with cosolvent or surfactant or cyclodextrin, thermodynamic from solid, ethanol/H2O (70/30), aw 0.8, solubility without temperature, read-out: Solubility) it was 4000 µg/mL; in data set [4] (aqueous with cosolvent or surfactant or cyclodextrin, thermodynamic from solid, methanol/H2O (50/50), aw 0.75, solubility without temperature, read-out: Solubility), 2000 µg/mL; in data set [4] (aqueous with cosolvent or surfactant or cyclodextrin, thermodynamic from solid, tetrahydrofuran/H2O (80/20), aw 1, solubility without temperature, read-out: Solubility), over 9000 µg/mL; in data set [4] (organic solvent or mixture, thermodynamic from solid, 1,4-dioxane, at 60° C., read-out: Solubility), 1000 µg/mL; in data set [4] (organic solvent or mixture, thermodynamic from solid, acetone, at 60° C., read-out: Solubility), under 1000 µg/mL. Besides, the solubility in data set [4] (organic solvent or mixture, thermodynamic from solid, acetonitrile (ACN), at 60° C., read-out: Solubility) is under 1000 µg/mL; in data set [4] (organic solvent or mixture, thermodynamic from solid, dichloromethane (DCM), at 60° C., read-out: Solubility), under 1000 µg/mL; in data set [4] (organic solvent or mixture, thermodynamic from solid, dimethylformamide (DMF), at RT, read-out: Solubility), over 50000 µg/mL; in data set [4] (organic solvent or mixture, thermodynamic from solid, ethanol (EtOH), at 60° C., read-out: Solubility), under 1000 µg/mL; in data set [4] (organic solvent or mixture, thermodynamic from solid, ethyl formate, at 60° C., read-out: Solubility) it was under 1000 µg/mL; in data set [4] (organic solvent or mixture, thermodynamic from solid, methanol (MeOH), at RT, read-out: Solubility) it was 1000 µg/mL. For the same compound, the solubility in data set [4] (organic solvent or mixture, thermodynamic from solid, methyl ethyl ketone (MEK), at 60° C., read-out: Solubility) is under 1000 µg/mL; in data set [4] (organic solvent or mixture, thermodynamic from solid, tetrahydrofuran (THF), at 60° C., read-out: Solubility), under 1000 µg/mL; in data set [4] (thermodynamic from solid, water, at 60° C., read-out: Solubility), under 1000 µg/mL; in data set [3], under 300 µg/mL. Moreover, the “solubility in aqueous solvents with high water activities (qualitative)” value in data set [4] (polymorph screening by salt formation in situ) is “soluble”. In data set [5], the “DVS: water uptake in the range 40-75% RH” value is “approximately 0.5%”. Further, in data set [5] (25° C.), the “DVS: weight gain up to 95% RH” value is on record as “approximately 4%”. In data set [5] (25° C., 5 to 95% RH), the “DVS: hygroscopicity” value was “Moderately hygroscopic”. The “Post-DVS XRPD” value in data set [5] (material after sorption/desorption cycle) is reported as “Unchanged; also recorded: consistent with Fumarate Salt Form A exhibiting some peak shifting at higher angles; also recorded: Form A, high angle peak shifting”. Also, the “DVS: water absorbed over each of the RH ranges 5 to 35%; 35 to 85%; 85 to 95% RH” value in data set [5] (one third of the total uptake per range) is on record as “Approximately 1%”. Also, in data set [5] (~800-mg scale lot), the “DVS: loss from 95 to 5% RH” value is 3% loss from 95 to 5% RH. Moreover, in data set [5] (~800-mg scale lot), the “DVS: loss upon drying at 5% RH” value is 0% loss upon drying at 5% RH. For the same compound, the “stability upon slurry in aqueous binary mixtures with high water activities (XRPD)” value in data set [6] (50° C. for 1 week) is reported as “appeared to be stable”. In data set [6] (e.g., dioxane/water 95:5, aw 0.4), the “result of slurries in non-aqueous and some low water activity solvents (XRPD)” value is on record as “disordered/low crystalline materials”. Moreover, the “KF-Oven % Water, Av” value in data set [7] (RT, 20% RH) came out at 1.23%; in data set [7] (RT, 39% RH), 1.59%; in data set [7] (RT, 58% RH) it was 1.58%; in data set [7] (RT, 75% RH), 1.73%; in data set [7] (RT, 97% RH), 3.86%; in data set [7] (RT, ~0% RH), 1.08%. Further, the “KF-Oven % Water, single determinations” value was 1.22% and 1.24% in data set [7] (RT, 20% RH); 1.67% and 1.50% in data set [7] (RT, 39% RH); 1.53% and 1.63% in data set [7] (RT, 58% RH); 1.82% and 1.63% in data set [7] (RT, 75% RH); 3.77% and 3.94% in data set [7] (RT, 97% RH); 1.14% and 1.01% in data set [7] (RT, ~0% RH). Also, the KF-Oven water was 0.7 mol/mol in data set [7] (RT, 20% RH); 0.9 mol/mol in data set [7] (RT, 39% RH); 0.9 mol/mol in data set [7] (RT, 58% RH); 0.9 mol/mol in data set [7] (RT, 75% RH); about 2.1 mol/mol in data set [7] (RT, 97% RH); 0.6 mol/mol in data set [7] (RT, ~0% RH). Also, the “XRPD Result” value is on record as “Form A” in data set [7] (RT, 20% RH); “Form A” in data set [7] (RT, 39% RH); “Form A” in data set [7] (RT, 58% RH); “Form A” in data set [7] (RT, 75% RH); “Form A” in data set [7] (RT, 97% RH); “Form A” in data set [7] (RT, ~0% RH). Besides, the “KF-Oven water (moles)” value in data set [7] (RT, ~0% RH) is recorded as “approximately 0.6 moles”. In addition, in data set [7] (room temperature), the “water content in the relative humidity range 40-75% RH (Karl Fisher)” value is “approximately 0.9 moles”. For the same compound, the “changes by XRPD after storage at various relative humidity conditions” value in data set [7] (room temperature, 0 to 97% RH) is reported as “no changes were observed”.

As to `O=C(O)CNC(=O)c1ccccc1` [hippuric], in data set [1], the pKa is recorded as 3.55.
